Results reported in PMC2902569 (Nature biotechnology, 2010).

Target: T1, Met30 (Saccharomyces cerevisiae, UniProt P39014)
T1 sequence (P39014 1-640): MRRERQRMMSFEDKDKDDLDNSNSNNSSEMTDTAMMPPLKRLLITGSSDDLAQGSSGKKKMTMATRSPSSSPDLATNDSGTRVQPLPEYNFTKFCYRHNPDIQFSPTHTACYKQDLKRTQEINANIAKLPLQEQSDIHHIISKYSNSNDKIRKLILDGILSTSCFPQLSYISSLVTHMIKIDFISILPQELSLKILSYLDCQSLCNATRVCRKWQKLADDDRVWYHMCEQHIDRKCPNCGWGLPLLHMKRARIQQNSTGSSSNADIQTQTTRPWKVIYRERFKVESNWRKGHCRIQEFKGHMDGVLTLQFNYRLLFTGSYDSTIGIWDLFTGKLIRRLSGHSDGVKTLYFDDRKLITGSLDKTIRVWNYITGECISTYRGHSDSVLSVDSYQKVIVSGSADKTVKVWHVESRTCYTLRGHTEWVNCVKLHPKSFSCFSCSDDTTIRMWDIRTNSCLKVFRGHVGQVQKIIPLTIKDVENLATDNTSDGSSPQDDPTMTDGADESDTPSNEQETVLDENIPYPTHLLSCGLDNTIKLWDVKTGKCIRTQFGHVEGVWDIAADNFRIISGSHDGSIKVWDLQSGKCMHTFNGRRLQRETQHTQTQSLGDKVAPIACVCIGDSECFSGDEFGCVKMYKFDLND
Experiment: DARTS, thermolysin or subtilisin protection, immunoblot
Format: biochemical
Conditions: yeast lysate (Skp1 present); also in vitro translated Met30

## O=C1c2ccccc2-c2nc3nonc3nc21 [SMER3]
  DARTS, thermolysin or subtilisin protection, immunoblot: we observed SMER3-dependent protection of Met30
